In ChEMBL document CHEMBL5244235, “Diarylpentanoids with antitumor activity: A critical review of structure-activity relationship studies” (Eur J Med Chem, 2020):

How the values were obtained:
Format in all cases: functional, cell-based
HCT-116 [1] = experiment: Antiproliferative activity against human HCT-116 cells assessed as cell viability measured after 24 hrs by XTT assay; conditions: HCT-116, 24 h
HT-29 = experiment: Antiproliferative activity against human HT-29 cells assessed as cell viability measured after 24 hrs by XTT assay; conditions: HT-29, 24 h
Jurkat E6.1 = experiment: Antiproliferative activity against human Jurkat E6.1 cells assessed as cell viability by WST-1 assay
SAOS-2 = experiment: Antiproliferative activity against human SAOS-2 cells assessed as cell viability by WST-1 assay
U-937 = experiment: Antiproliferative activity against human U-937 cells assessed as cell viability by WST-1 assay
HCT-116 [2] = experiment: Antiproliferative activity against human HCT-116 cells assessed as cell viability by WST-1 assay

SMILES | IC50 (HCT-116 [1]) [nM] | IC50 (HT-29) [nM] | IC50 (Jurkat E6.1) [nM] | IC50 (SAOS-2) [nM] | IC50 (U-937) [nM] | IC50 (HCT-116 [2]) [nM]
CN1C/C(=C\c2ccccn2)C(=O)/C(=C/c2ccccn2)C1 | 620 | 620 |  |  |  | 
O=C1/C(=C/c2ccc(O)c(O)c2)COC/C1=C\c1ccc(O)c(O)c1 |  |  | 1450 | 1450 | 1450 | 1450
